Experimental data published in patent US10697019B2, “Method of diagnosis and prognosis” (IMPERIAL COLLEGE INNOVATIONS LIMITED, priority 2011, dated 2020).
[ ]: non-standard residue; d: D form. The star is where a group is joined. Cbz = O=C(OCc1ccccc1)*

System: panel of 29 cancer cell lines
Assay: [3H]thymidine incorporation assay of Z-DTP-induced killing, correlated with Gadd45β mRNA expression (qRT-PCR)
Assay type: cell-based
Conditions: 10 μM Z-DTP2 for 144 hrs, Pearson correlation p<0.01
Excerpt: The significance of the correlation co-efficient between the two parameters is p<0.01 (Pearson correlation as calculated by GraphPad software).
For example, primary cell from multiple myeloma patients can be analysed for levels of Gadd45β expression, and patients with high levels of this expression can be deemed as those who will receive the most benefit from treatment with Gadd45β inhibitors.
In order to determine the basis for the different sensitivity of tumour cell lines to Z-DTP-induced killing, we measured levels of Gadd45β expression in a panel of 29 tumour cell lines or different tissues of origin by using quantitative real-time polymerase chain reaction (qRT-PCT) and correlated these levels with the degree of susceptibility of these cell lines to the cytotoxic activity of Z-DTPs. […] Experimental Ct values were normalized to β-actin, and relative mRNA expression calculated versus a reference sample (i.e. mRNA from HEK-293T cells). The sensitivity of cancer cell lines to Z-DTP-induced killing was analysed as described above by performing [^3H]thymidine incorporation assays after treatment of the cells with 10 μM of Z-DTP2 for 144 hrs. […] The significance of the correlation coefficient between the 2 parameters' domain was calculated by Pearson correlation, which quantifies the association between two variables, using the GraphPad software.

With “Z-DTP2: tetrapeptide Tyr-Glu-Arg-Phe, amino acids in the D configuration, NH2 group at the C terminal, benzyloxycarbonyl group at the N terminal; specific Gadd45β inhibitor (Cbz-[dY][dE][dR][dF]-NH2)” the “cancer cell sensitivity to Z-DTP-induced killing versus levels of endogenous Gadd45β expression” value was “correlates with a very high degree of statistical significance”.
